Experimental findings from ChEMBL document CHEMBL1201862, “PubChem BioAssay data set” (2004) are described below.

Test systems include SN12C; KM12; MDA-MB-231; OVCAR-4; A549; MCF7; SF-539; CAKI-1; HCC 2998; MDA-N; M14; 786-0; UO-31; Hs-578T; A498; BT-549; HOP-62; NCI-H23; OVCAR-3; LOX IMVI.
Common to all, as to experiment: NCI tumour cell line growth inhibition, 48 h

The structures appear in SMILES notation.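 Cells were grown in 96-well plates and exposed to each compound for 48 hours at five concentrations; endpoints were interpolated linearly between bracketing concentrations, or set to the highest concentration if not reached. At the GI50, growth is halved.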 Active and inactive are the calls of the source. No stated cut-off is given here; in the data, active = GI50 up to about 1.1 µM and inactive = higher. Where only a bound is given, the exact number is not on record here.

For `NC(Cc1cccnn1)C(=O)O` (centres undefined), the GI50 in the experiment with SN12C, in the experiment on KM12, in the experiment on MDA-MB-231, in the experiment with OVCAR-4, in the experiment on A549 and in the experiment on MCF7 was > 100 µM (inactive) each time. Besides, the GI50 in the experiment on SF-539, in the experiment on CAKI-1, in the experiment on HCC 2998, in the experiment with MDA-N, in the experiment on M14 and with 786-0 was > 100 µM (inactive) in each case. The GI50 with UO-31, with Hs-578T, in the experiment with A498, with BT-549, with HOP-62 and in the experiment on NCI-H23 was > 100 µM (inactive) throughout. For the same molecule, the GI50 in the experiment with OVCAR-3 and in the experiment on LOX IMVI was > 100 µM (inactive) each time.
For the molecule `COc1ccc(C2(CC(C)O)SCCCS2)cc1` (centres undefined), the GI50 in the experiment with SN12C, with KM12, with MDA-MB-231, in the experiment with OVCAR-4, in the experiment on A549 and in the experiment with MCF7 was > 100 µM (inactive) throughout. The GI50 in the experiment with SF-539, in the experiment with CAKI-1, in the experiment with HCC 2998, in the experiment with MDA-N, in the experiment with M14 and in the experiment on 786-0 was > 100 µM (inactive) throughout. Also, the GI50 in the experiment with UO-31, in the experiment on Hs-578T, with A498, in the experiment with BT-549, in the experiment on HOP-62 and in the experiment with NCI-H23 was > 100 µM (inactive) each time. Also, the GI50 in the experiment on OVCAR-3 was > 100 µM (inactive).
With `Cn1c(=O)c2c(no[n+]2[O-])n(C)c1=O`, the GI50 in the experiment with SN12C is 39.3 µM (inactive); with KM12 it was 52 µM (inactive); with MDA-MB-231 it was 21.7 µM (inactive); in the experiment with OVCAR-4 it was 59.8 µM (inactive); in the experiment on A549, > 100 µM (inactive); in the experiment with MCF7 it was > 100 µM (inactive). Further, the GI50 is 63.2 µM (inactive) in the experiment with SF-539; 19.3 µM (inactive) in the experiment on CAKI-1; > 100 µM (inactive) with HCC 2998; 22.4 µM (inactive) with MDA-N; > 100 µM (inactive) in the experiment with M14; 23.8 µM (inactive) in the experiment with 786-0. Also, the GI50 in the experiment on UO-31 is 31 µM (inactive); in the experiment on Hs-578T, 22.6 µM (inactive); in the experiment with A498, 18.2 µM (inactive); with BT-549 it was 21.7 µM (inactive); in the experiment with HOP-62, 18.4 µM (inactive); in the experiment with NCI-H23, 22.4 µM (inactive). Further, the GI50 in the experiment on OVCAR-3 and with LOX IMVI was > 100 µM (inactive) in each case.
As for `N#Cc1c(C#N)c(SSc2c(C#N)c(C#N)c(N)n2-c2ccc(F)cc2)n(-c2ccc(F)cc2)c1N`, the GI50 in the experiment on SN12C is 16.6 µM (inactive); in the experiment with KM12, 23.2 µM (inactive); in the experiment on MDA-MB-231, 19.6 µM (inactive); with OVCAR-4, 2.77 µM (inactive); in the experiment on A549 it was 18.9 µM (inactive); in the experiment with MCF7, 2.9 µM (inactive). For the same molecule, the GI50 was 19.2 µM (inactive) with SF-539; 8.17 µM (inactive) with CAKI-1; 21.8 µM (inactive) in the experiment with HCC 2998; 3.67 µM (inactive) in the experiment with MDA-N; 4.8 µM (inactive) in the experiment with M14; 1.79 µM (inactive) with 786-0. Besides, the GI50 is 2.06 µM (inactive) in the experiment on UO-31; 25.8 µM (inactive) in the experiment with Hs-578T; 8.11 µM (inactive) with A498; 2.88 µM (inactive) in the experiment on BT-549; 17.8 µM (inactive) in the experiment with HOP-62; 6.73 µM (inactive) in the experiment with NCI-H23. The GI50 with OVCAR-3 is 2.66 µM (inactive); in the experiment with LOX IMVI it was 26.4 µM (inactive).
Turning to `Cc1cccc(NC(=O)/C=C/c2ccccc2)c1C`, the GI50 with SN12C, in the experiment with KM12, in the experiment with MDA-MB-231, with OVCAR-4, with A549 and in the experiment with MCF7 was > 100 µM (inactive) throughout. For the same molecule, the GI50 with SF-539, in the experiment with CAKI-1, in the experiment on HCC 2998, in the experiment with MDA-N, in the experiment with M14 and with 786-0 was > 100 µM (inactive) each time. For the same molecule, the GI50 with Hs-578T is 37.7 µM (inactive); in the experiment on A498 it was > 100 µM (inactive); with BT-549, > 100 µM (inactive); in the experiment on HOP-62, 85.9 µM (inactive); in the experiment with NCI-H23, > 100 µM (inactive); in the experiment with OVCAR-3 it was > 100 µM (inactive). In addition, the GI50 with LOX IMVI was > 100 µM (inactive).
For `COc1cc(C(O)CCBr)c(OC)cc1C` (centres undefined), the GI50 with SN12C was 16.4 µM (inactive); in the experiment on KM12, 29.9 µM (inactive); with MDA-MB-231, 21.2 µM (inactive); in the experiment on OVCAR-4, 52.8 µM (inactive); with A549 it was > 100 µM (inactive); in the experiment with MCF7 it was 4.37 µM (inactive). The GI50 in the experiment on SF-539 was 8.17 µM (inactive); in the experiment on CAKI-1, 14.9 µM (inactive); in the experiment with MDA-N, 2.79 µM (inactive); in the experiment with M14, 4.6 µM (inactive); with 786-0 it was 8.32 µM (inactive); in the experiment with UO-31, 26.3 µM (inactive). The GI50 in the experiment with Hs-578T was 25.1 µM (inactive); with A498, > 64.6 µM (inactive); in the experiment on BT-549, 23 µM (inactive); in the experiment on HOP-62 it was 28.6 µM (inactive); with NCI-H23 it was 14.3 µM (inactive); in the experiment with OVCAR-3, 13.4 µM (inactive). In addition, the GI50 in the experiment with LOX IMVI is 8.95 µM (inactive).
Turning to `O=C(c1cccc(OCc2ccccc2)c1OCc1ccccc1)N1CCSC1=S`, the GI50 in the experiment on SN12C was 19.5 µM (inactive); with KM12 it was 5.13 µM (inactive); with MDA-MB-231, 19.8 µM (inactive); with OVCAR-4, 56.5 µM (inactive); with A549, 23.7 µM (inactive); in the experiment on MCF7, 23 µM (inactive). In addition, the GI50 in the experiment on SF-539 is 33.3 µM (inactive); with CAKI-1 it was 31 µM (inactive); in the experiment with HCC 2998, 28 µM (inactive); with MDA-N, 27.9 µM (inactive); in the experiment with M14 it was 33.2 µM (inactive); in the experiment on 786-0, 42.8 µM (inactive). Moreover, the GI50 in the experiment on UO-31 was 10.6 µM (inactive); in the experiment on Hs-578T it was 2.29 µM (inactive); in the experiment with A498, 16.5 µM (inactive); with BT-549, 29.5 µM (inactive); in the experiment on HOP-62, 27.2 µM (inactive); in the experiment on NCI-H23 it was 19.1 µM (inactive). Moreover, the results for the GI50 in the experiment on OVCAR-3 and with LOX IMVI were 21.1 µM (inactive) and 34.2 µM (inactive), respectively.
`O=c1[nH]cnc2c1ncn2[C@H]1CO[C@@H](CO)[C@@H]1O`: the GI50 in the experiment on SN12C, in the experiment on KM12, in the experiment with MDA-MB-231, in the experiment on OVCAR-4, in the experiment with MCF7 and in the experiment on SF-539 was > 100 µM (inactive) each time. Besides, the GI50 in the experiment on CAKI-1, in the experiment on HCC 2998, in the experiment with MDA-N, in the experiment on 786-0, in the experiment with UO-31 and with Hs-578T was > 100 µM (inactive) in each case. For the same molecule, the GI50 in the experiment on A498, with BT-549, with HOP-62, in the experiment on NCI-H23, in the experiment on OVCAR-3 and in the experiment on LOX IMVI was > 100 µM (inactive) each time.
In the case of `COC(=O)c1ccc(C)cc1C1CN=NC12Cc1c(C)cccc1C2=O` (centres undefined), the GI50 is 36 µM (inactive) with SN12C; 32.1 µM (inactive) with KM12; 38.5 µM (inactive) with MDA-MB-231; 44.1 µM (inactive) with OVCAR-4; 49.4 µM (inactive) with A549; 0.394 µM (active) with MCF7. Also, the GI50 with SF-539 is 89.1 µM (inactive); with CAKI-1 it was 50.6 µM (inactive); in the experiment with HCC 2998, > 100 µM (inactive); in the experiment on MDA-N, 37.5 µM (inactive); in the experiment with 786-0, 52.1 µM (inactive); with UO-31, 42.9 µM (inactive). Moreover, the GI50 with Hs-578T is 37.6 µM (inactive); in the experiment on A498 it was 52.5 µM (inactive); in the experiment on BT-549 it was 75 µM (inactive); with HOP-62, 46.8 µM (inactive); with NCI-H23, 39.4 µM (inactive); in the experiment on OVCAR-3, 27 µM (inactive). Also, the GI50 in the experiment on LOX IMVI is 24.3 µM (inactive).
For the molecule `CC(=O)O[C@@H]1C(C2CCCCC2)C=[N+]([O-])O[C@@H]1OC1CCCC1(c1ccccc1)c1ccccc1` (some centres undefined), the GI50 is 9.23 µM (inactive) in the experiment on SN12C; 8.04 µM (inactive) with KM12; 8.45 µM (inactive) with MDA-MB-231; 7.98 µM (inactive) with OVCAR-4; 14.8 µM (inactive) in the experiment with A549; 3.18 µM (inactive) with MCF7. In addition, the GI50 in the experiment on SF-539 was 3.94 µM (inactive); with CAKI-1 it was 5.33 µM (inactive); in the experiment on HCC 2998, 8.57 µM (inactive); with MDA-N, 4.28 µM (inactive); in the experiment on M14, 5.31 µM (inactive); with 786-0, 3.76 µM (inactive). Moreover, the GI50 is 8.09 µM (inactive) with UO-31; 11 µM (inactive) with Hs-578T; 7.41 µM (inactive) in the experiment with A498; 12.4 µM (inactive) in the experiment with BT-549; 14.9 µM (inactive) with HOP-62; 11 µM (inactive) with NCI-H23. Further, the GI50 with OVCAR-3 was 2.7 µM (inactive); in the experiment with LOX IMVI it was 1.94 µM (inactive).
